The text below walks through data of ChEMBL document CHEMBL1201862, “PubChem BioAssay data set” (2004).

Molecules are shown by their SMILES.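 These data come from cells grown in 96-well plates and exposed to compound for 48 hours at five concentrations. GI50 is the concentration that inhibits growth by half.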 Activity calls are given as the source filed them. No stated cut-off is given here; in the data, active = GI50 up to about 1.1 µM and inactive = higher. Bounds are passed on as bounds.

Some test systems named below: OVCAR-5; NCI-H460; SF-539; Malme-3M; NCI-H226; MCF7; SNB-75; K562; SN12C; SF-268; SNB-19; ACHN; A549; 786-0; CAKI-1; SK-MEL-28; U-251; CCRF-CEM; HCT-116; T47D.
Assay in all cases: inhibition of tumour cell growth, NCI panel, 48 h

As to `O=C(Nc1ccc(S(=O)(=O)Nc2ncccn2)cc1)c1c2ccccc2nc2ccccc12`, the GI50 was > 100 µM (inactive) with OVCAR-5; > 100 µM (inactive) in the assay on NCI-H460; > 100 µM (inactive) in the assay with SF-539; > 100 µM (inactive) with Malme-3M; < 0.01 µM (active) in the assay with NCI-H226; > 100 µM (inactive) in the assay on MCF7. For the same molecule, the GI50 in the assay on SNB-75, in the assay on K562, in the assay with SN12C, in the assay on SF-268, in the assay on SNB-19 and in the assay on ACHN was > 100 µM (inactive) in each case. The GI50 in the assay with A549 is > 100 µM (inactive); in the assay on 786-0, > 100 µM (inactive); in the assay with CAKI-1, > 100 µM (inactive); with SK-MEL-28 it was > 100 µM (inactive); in the assay on U-251 it was > 100 µM (inactive); in the assay with CCRF-CEM, > 10 µM (inactive). In the assay with HCT-116, the GI50 is > 100 µM (inactive).

With `O=S(=O)(Oc1ccc2ccccc2c1-c1c(OS(=O)(=O)C(F)(F)F)ccc2ccccc12)C(F)(F)F`, the GI50 is > 100 µM (inactive) in the assay with OVCAR-5; 20 µM (inactive) in the assay with NCI-H460; > 100 µM (inactive) in the assay on SF-539; > 100 µM (inactive) in the assay with Malme-3M; 79.1 µM (inactive) with NCI-H226; > 100 µM (inactive) in the assay with MCF7. Moreover, the GI50 in the assay on SNB-75 is > 100 µM (inactive); in the assay with K562, 16.9 µM (inactive); with SF-268, > 100 µM (inactive); in the assay on SNB-19, > 100 µM (inactive); in the assay on ACHN it was 2.75 µM (inactive); with A549 it was 35 µM (inactive). Further, the GI50 in the assay with 786-0 was > 100 µM (inactive); in the assay on CAKI-1 it was > 100 µM (inactive); in the assay with SK-MEL-28 it was > 100 µM (inactive); in the assay on U-251 it was 32.1 µM (inactive); in the assay on CCRF-CEM, 29.3 µM (inactive); with HCT-116, 9.64 µM (inactive).

For the molecule `C=CCN1C(=O)CC1N(CC=C)S(=O)(=O)c1ccc(C)cc1` (stereo not drawn), the GI50 with OVCAR-5 is > 100 µM (inactive); in the assay with NCI-H460, > 100 µM (inactive); with Malme-3M, > 100 µM (inactive); with NCI-H226, > 100 µM (inactive); in the assay with MCF7, > 100 µM (inactive); in the assay with K562, 98.4 µM (inactive). Further, the GI50 with SN12C was 61.7 µM (inactive); in the assay on SNB-19, > 100 µM (inactive); with ACHN it was > 100 µM (inactive); in the assay with A549, > 100 µM (inactive); in the assay with 786-0, > 100 µM (inactive); in the assay on CAKI-1, > 100 µM (inactive). For the same molecule, the GI50 in the assay on SK-MEL-28, with U-251, in the assay with CCRF-CEM and with HCT-116 was > 100 µM (inactive) in each case.

On to `C=CCCC1(O)C(O)C(CO)O[C@H](O[C@@]2(CO)OC(CO)C(O)C2O)C1O` (stereo partly drawn), for which the GI50 in the assay with OVCAR-5, in the assay with NCI-H460, in the assay on SF-539, in the assay with Malme-3M, in the assay on NCI-H226 and in the assay with MCF7 was > 100 µM (inactive) in each case. The GI50 in the assay on SNB-75, in the assay on K562, in the assay on SN12C, in the assay with SF-268, with SNB-19 and with ACHN was > 100 µM (inactive) throughout. The GI50 with A549, in the assay on 786-0, in the assay with CAKI-1, in the assay on SK-MEL-28, in the assay on U-251 and with CCRF-CEM was > 100 µM (inactive) throughout. The GI50 with HCT-116 is > 100 µM (inactive).

For the molecule `Cc1ccc(C(=O)C2C=C(c3ccc(C)cc3)SC3C=CCC32)cc1` (stereo not drawn), the GI50 is 18.4 µM (inactive) in the assay with OVCAR-5; 20.5 µM (inactive) with T47D; 16.9 µM (inactive) in the assay on NCI-H460; 17.9 µM (inactive) in the assay with SF-539; 16.3 µM (inactive) with Malme-3M; 27.2 µM (inactive) in the assay on NCI-H226. Besides, the GI50 in the assay with K562 is 27.7 µM (inactive); with SN12C, 17.2 µM (inactive); in the assay with SNB-19 it was 30 µM (inactive); in the assay with ACHN, 20.5 µM (inactive); in the assay with A549, 22.9 µM (inactive); with 786-0 it was 19.5 µM (inactive). For the same molecule, the GI50 in the assay with CAKI-1 is 18.9 µM (inactive); with SK-MEL-28, 17.4 µM (inactive); in the assay with U-251, 17.9 µM (inactive); in the assay on CCRF-CEM, 13.6 µM (inactive); in the assay on HCT-116, 13.5 µM (inactive).

Take `CP(=O)(O)C(N)c1ccccc1` (stereo not drawn): the GI50 in the assay on OVCAR-5, in the assay on T47D, in the assay on NCI-H460, in the assay on Malme-3M, in the assay on NCI-H226 and in the assay with MCF7 was > 100 µM (inactive) in each case. Also, the GI50 in the assay on K562, in the assay on SN12C, in the assay on SF-268, in the assay with SNB-19, in the assay on ACHN and in the assay on A549 was > 100 µM (inactive) each time. The GI50 with 786-0, in the assay on CAKI-1, in the assay with SK-MEL-28, with U-251, in the assay with CCRF-CEM and in the assay on HCT-116 was > 100 µM (inactive) in each case.

For `COc1ccc(CCc2ccc3c(c2)OCO3)cc1`, the GI50 is > 100 µM (inactive) in the assay with OVCAR-5; > 100 µM (inactive) with NCI-H460; 92 µM (inactive) in the assay on SF-539; > 100 µM (inactive) in the assay with Malme-3M; 62.5 µM (inactive) with NCI-H226; 35.8 µM (inactive) in the assay on MCF7. For the same molecule, the GI50 with SNB-75 was > 100 µM (inactive); in the assay on K562, 38.5 µM (inactive); in the assay on SN12C, > 100 µM (inactive); in the assay with SF-268, > 100 µM (inactive); in the assay on SNB-19 it was > 100 µM (inactive); with ACHN, > 100 µM (inactive). Further, the GI50 in the assay with A549 is 68.9 µM (inactive); in the assay with 786-0, > 100 µM (inactive); in the assay with CAKI-1, 75.5 µM (inactive); in the assay with SK-MEL-28, > 100 µM (inactive); with U-251, 33.7 µM (inactive); in the assay on CCRF-CEM, 35.9 µM (inactive). The GI50 in the assay on HCT-116 was 36.6 µM (inactive).

Turning to `Clc1ccc(/C=N/C23CC4CC(CC(C4)C2)C3)c(Cl)c1`, the GI50 with OVCAR-5, in the assay with T47D, in the assay with NCI-H460, in the assay on SF-539, in the assay on Malme-3M and in the assay on NCI-H226 was > 10 µM (inactive) in each case. The GI50 with SNB-75, in the assay on K562, in the assay on SN12C, with SF-268, with SNB-19 and in the assay on ACHN was > 10 µM (inactive) in each case. The GI50 in the assay on A549, with 786-0, with CAKI-1, in the assay with SK-MEL-28, with U-251 and in the assay on CCRF-CEM was > 10 µM (inactive) each time. Besides, the GI50 with HCT-116 was > 10 µM (inactive).

As for `C=C1c2nc3ccccc3n2C=C(c2ccccc2)N1c1ccccc1`, the GI50 in the assay with OVCAR-5 was > 100 µM (inactive); in the assay on NCI-H460, 27.5 µM (inactive); in the assay on SF-539, 43.6 µM (inactive); in the assay with Malme-3M it was > 100 µM (inactive); in the assay with NCI-H226 it was 57.4 µM (inactive); in the assay with MCF7, 14.6 µM (inactive). For the same molecule, the GI50 was > 100 µM (inactive) in the assay on SNB-75; 34.5 µM (inactive) in the assay on K562; 92.5 µM (inactive) in the assay on SN12C; 40.4 µM (inactive) with SNB-19; 49.4 µM (inactive) with ACHN; 30.3 µM (inactive) in the assay with A549. Also, the GI50 is > 100 µM (inactive) in the assay with 786-0; 81.7 µM (inactive) in the assay on CAKI-1; 58.6 µM (inactive) in the assay on U-251; 53.3 µM (inactive) in the assay with CCRF-CEM; 13.5 µM (inactive) in the assay with HCT-116.

Regarding `CCCN(CCCCC(NC(C)=O)C(=O)NCc1ccccc1)C(=O)N(C)N=O` (stereo not drawn), the GI50 in the assay on OVCAR-5 was > 100 µM (inactive); in the assay on NCI-H460 it was > 100 µM (inactive); in the assay on SF-539 it was > 100 µM (inactive); in the assay with Malme-3M, > 100 µM (inactive); in the assay with NCI-H226, > 100 µM (inactive); in the assay with SNB-75, 38.1 µM (inactive). In addition, the GI50 in the assay on K562, in the assay with SN12C, in the assay with SF-268, in the assay with SNB-19, in the assay on ACHN and in the assay with A549 was > 100 µM (inactive) throughout. The GI50 with 786-0, with CAKI-1, with SK-MEL-28, in the assay on U-251, with CCRF-CEM and in the assay with HCT-116 was > 100 µM (inactive) throughout.

In the case of `Nc1nc(CCc2n[nH]c(N)n2)n[nH]1`, the GI50 in the assay on OVCAR-5, in the assay on NCI-H460, in the assay with SF-539, in the assay on Malme-3M, with NCI-H226 and with SNB-75 was > 100 µM (inactive) throughout. Further, the GI50 in the assay on K562, in the assay on SN12C, in the assay on SF-268, in the assay with SNB-19, in the assay on ACHN and in the assay on A549 was > 100 µM (inactive) throughout. Besides, the GI50 in the assay on 786-0, in the assay on CAKI-1, with SK-MEL-28, in the assay with U-251, with CCRF-CEM and in the assay on HCT-116 was > 100 µM (inactive) throughout.
